# Measurements as given in patent publication US11397186B2, “Methods for covalently binding a cell surface protein and a ligand” (UNIVERSITEIT GENT, priority 2016, dated 2022).
# Non-standard residues stand in square brackets, D forms with d. Residues, ends and D or L forms follow the SMILES beside them. Ala(2-furyl) = N[C@@H](Cc1ccco1)C(=O)O
# Target: T1, μ-opioid receptor (MOR) (Homo sapiens, UniProt P35372)
# T1 construct: expressed in transfected cells; host or cells: CHO-hOR cells (CHO cells expressing the human opioid receptor)
# T1 sequence (P35372 whole entry): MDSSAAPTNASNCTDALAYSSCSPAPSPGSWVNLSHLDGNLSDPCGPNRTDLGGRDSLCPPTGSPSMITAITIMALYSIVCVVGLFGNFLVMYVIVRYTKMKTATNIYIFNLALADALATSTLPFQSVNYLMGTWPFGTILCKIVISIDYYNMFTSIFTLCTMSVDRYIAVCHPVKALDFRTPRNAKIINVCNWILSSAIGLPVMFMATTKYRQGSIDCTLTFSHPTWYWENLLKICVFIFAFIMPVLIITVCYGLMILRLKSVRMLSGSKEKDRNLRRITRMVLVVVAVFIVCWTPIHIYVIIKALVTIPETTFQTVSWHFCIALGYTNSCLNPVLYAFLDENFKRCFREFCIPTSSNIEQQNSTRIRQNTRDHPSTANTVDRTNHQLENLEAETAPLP
# Assay: Opioid receptor radio-ligand binding assay (CHO-hOR cells)
# Details: based on Table 1
# Experimental: Next, the synthesised peptides were subjected to biological activity testing, to know whether they still bind to the opioid receptor. If so, it is tested to which opioid receptor subtype they bind. It is also investigated whether the opioid peptides behave as agonist or antagonist. The following assays are performed: radio-ligand binding assay, ^35S GTP binding assay, and tissue experiments, including guinea pig ileum (GPI) and mouse vas deferens (MVD) tests.
compound,measurement,value
N=C(N)NCCC[C@@H](NC(=O)[C@@H](N)Cc1ccc(O)cc1)C(=O)N[C@@H](Cc1ccco1)C(=O)N[C@@H](Cc1ccccc1)C(N)=O [FUA3] (H-Y[dR][Ala(2-furyl)]F-NH2; N-terminus and C-terminus assumed),"binding to the opioid receptor, assessment in words",acceptable
